Measurements reported in article PMC6887723, “Design and Synthesis of 4-(Heterocyclic Substituted Amino)-1H-Pyrazole-3-Carboxamide Derivatives and Their Potent Activity against Acute Myeloid Leukemia (AML)” (International Journal of Molecular Sciences, 2019).

Legend:
Assay in all cases: Hot-Spot kinase profiling
Assay type in all cases: biochemical
[1] = target: T1, FGFR1 (Homo sapiens, UniProt P11362); conditions: read-out: % Enzyme Activity (Relative to DMSO Controls) FGFR1
T1 construct: purchased Reaction Biology Corp. (HotSpot kinase assay)
T1 sequence (P11362 22-822): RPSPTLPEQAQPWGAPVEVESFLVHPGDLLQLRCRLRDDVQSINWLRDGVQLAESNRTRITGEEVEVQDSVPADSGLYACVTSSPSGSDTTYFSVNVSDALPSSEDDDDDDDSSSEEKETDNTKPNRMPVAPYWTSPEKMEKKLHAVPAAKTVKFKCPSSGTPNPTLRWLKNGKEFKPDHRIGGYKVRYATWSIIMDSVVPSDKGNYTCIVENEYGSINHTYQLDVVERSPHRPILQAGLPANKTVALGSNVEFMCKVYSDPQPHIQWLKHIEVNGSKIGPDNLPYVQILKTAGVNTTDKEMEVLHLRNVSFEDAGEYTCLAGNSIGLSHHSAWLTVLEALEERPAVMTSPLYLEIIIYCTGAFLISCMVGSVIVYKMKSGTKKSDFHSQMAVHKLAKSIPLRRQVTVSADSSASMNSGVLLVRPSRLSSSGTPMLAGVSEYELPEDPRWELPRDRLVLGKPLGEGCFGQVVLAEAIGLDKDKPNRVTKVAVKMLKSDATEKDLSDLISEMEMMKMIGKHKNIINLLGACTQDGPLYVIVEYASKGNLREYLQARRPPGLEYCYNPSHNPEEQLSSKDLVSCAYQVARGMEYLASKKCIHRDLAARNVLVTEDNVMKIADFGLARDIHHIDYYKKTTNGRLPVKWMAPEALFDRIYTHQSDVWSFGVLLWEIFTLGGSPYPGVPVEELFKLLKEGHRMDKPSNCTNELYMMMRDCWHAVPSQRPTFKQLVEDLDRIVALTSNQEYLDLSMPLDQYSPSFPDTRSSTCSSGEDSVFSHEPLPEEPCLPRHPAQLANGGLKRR
Method: (§1) Activities of kinases were determined using Hot-SpotSM kinase assay which was performed by Reaction Biology Corp. (Malvern PA, USA) as described previously.

[2] = target: T2, GSK3β (Homo sapiens, UniProt P49841)
T2 construct: purchased Reaction Biology Corp
T2 sequence (P49841 whole entry): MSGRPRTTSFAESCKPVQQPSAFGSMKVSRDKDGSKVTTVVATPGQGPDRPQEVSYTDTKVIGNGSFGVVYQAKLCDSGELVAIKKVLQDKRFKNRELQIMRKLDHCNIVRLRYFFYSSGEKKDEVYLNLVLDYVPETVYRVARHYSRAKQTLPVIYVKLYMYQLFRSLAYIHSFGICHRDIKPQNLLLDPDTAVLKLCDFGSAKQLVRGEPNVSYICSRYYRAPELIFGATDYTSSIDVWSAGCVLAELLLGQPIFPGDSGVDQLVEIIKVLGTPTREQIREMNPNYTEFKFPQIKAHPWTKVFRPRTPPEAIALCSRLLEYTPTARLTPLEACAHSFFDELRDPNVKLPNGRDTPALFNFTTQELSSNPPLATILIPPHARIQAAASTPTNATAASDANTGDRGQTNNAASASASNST
Method: as §1

[3] = target: T3, SYK (Homo sapiens, UniProt P43405); conditions: read-out: % Enzyme Activity (Relative to DMSO Controls) SYK
T3 construct: purchased Reaction Biology Corp. (Malvern PA, USA)
Method: as §1

[4] = target: T4, c-Src (Homo sapiens, UniProt P12931); conditions: read-out: % Enzyme Activity (Relative to DMSO Controls) c-Src
T4 construct: purchased Reaction Biology Corp. (HotSpot kinase assay)
T4 sequence (P12931 whole entry): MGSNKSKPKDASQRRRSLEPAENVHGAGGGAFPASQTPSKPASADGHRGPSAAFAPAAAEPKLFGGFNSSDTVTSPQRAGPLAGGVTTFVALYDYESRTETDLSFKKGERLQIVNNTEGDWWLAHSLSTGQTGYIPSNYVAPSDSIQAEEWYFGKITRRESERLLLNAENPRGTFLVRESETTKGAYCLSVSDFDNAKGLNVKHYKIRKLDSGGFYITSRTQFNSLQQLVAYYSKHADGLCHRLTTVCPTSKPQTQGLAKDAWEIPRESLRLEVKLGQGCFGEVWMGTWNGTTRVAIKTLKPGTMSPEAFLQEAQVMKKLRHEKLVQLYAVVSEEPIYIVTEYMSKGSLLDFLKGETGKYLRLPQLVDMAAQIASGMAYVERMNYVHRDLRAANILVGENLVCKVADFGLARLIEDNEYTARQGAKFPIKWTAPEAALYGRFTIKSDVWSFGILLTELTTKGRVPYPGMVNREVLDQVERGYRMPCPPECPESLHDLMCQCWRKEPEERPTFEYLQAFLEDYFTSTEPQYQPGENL
Method: as §1

- remaining activity at 0.15 µM [1]: 40%
- remaining activity at 0.15 µM ([2]; 0.15 μM, read-out: % Enzyme Activity (Relative to DMSO Controls) GSK3b): 8.65%
- IC50 ([2]; Table 5 kinase profiling): 12 ± 1.2 nM
- remaining activity at 0.15 µM [3]: 35.4%
- remaining activity at 0.15 µM [4]: 73.8%
Compound: O=C(Nc1ccc(N2CCNCC2)cc1)c1n[nH]cc1Nc1ncnc2sc3c(c12)CCC3 [Compound 8t]
